In the NIST ThermoML archive (doi:10.1016/j.jct.2012.03.031):
Numbers after ± are expanded uncertainties.

Conditions: Crystal 1; visual observation

CCCCc1ccc(C(=O)Oc2ccc(C#N)c(F)c2)cc1 [4-cyano-3-fluorophenyl 4-butylbenzoate]
Triple point temperature: 288.43 ± 0.39 K
